Data set [1] concerns streptozotocin (STZ)-induced diabetic neuropathy. As to the kind of experiment: STZ-induced diabetic neuropathy mouse model, initial studies (treatment after 8 weeks of diabetes). Type of data set: in vivo. As for the experimental part:
Physiological studies were performed in a diabetic mouse model to determine if KU-32 is suitable for further pre-clinical development. A mouse model of streptozotocin (STZ)-induced diabetic neuropathy was utilized. One such diabetic mouse model is described, for example, in Christianson et al., Neuroscience, 2007, 145 (1): 303-313. […] Thus, although the drug was capable of attenuating the decline in SNCV, a more powerful indicator of efficacy and clinical usefulness was desired to indicate the drug could reverse a pre-existing deficit in NCV. […] The study was therefore repeated with a larger trial size and under more stringent long-term diabetic conditions prior to weekly drug administration.

The nature of data set [2]: Phase-solubility of KU-32 in Captisol in water. Type of data set: physicochemical. As for the experimental part:
On day 12 of the study mice received 2, 5 or 10 mg/kg KU-32 by IP injection on a daily basis. KU-32 was formulated at all concentrations in 0.05 M Captisol®. To access the phase-solubility behavior of KU-32 in Captisol®, KU-32 in excess of its expected solubility were equilibrated with increasing concentrations of Captisol® in water. The suspensions were allowed to equilibrate at least 24-hours at 25° C., after which time the suspensions were centrifuged and the KU-32 concentration in the supernatant determined by RP-HPLC.

For a further data set, the system named is Hsp70. As to the kind of experiment: Hsp70 levels in mouse brain after KU-32 IP administration (Hsp70/actin densitometry). To be noted: single IP injection 2 or 20 mg/kg, frontal and hind brain sections, FIG. 2. Type of data set: in vivo, mice. The protocol: (§1) The plasma and brain levels of the Hsp90 inhibitor KU-32 as a function of time in mice were investigated following IP or IV injection to mice. Pharmacokinetics of KU-32 levels in mouse plasma and brain was determined by LC-MS. For these studies, female Balb/c mice (6-7 weeks) were injected with either 2 or 20 mg/kg KU-32 or vehicle. Mice were sacrificed at predetermined time points and plasma was collected following cardiac puncture for determination of KU-32 levels. The animals were perfused with normal saline and the brain was harvested and homogenized. Half the brain was analyzed for KU-32 levels and the remaining half was analyzed for Hsp70 levels.
Changes in Hsp70 levels in mouse brain over time following KU-32 IP administration were determined. The ratio of Hsp70 to actin was determined in frontal and hind brain sections recovered from brains of mice at each indicated time point shown in FIG. 2 following administration of either 2 or 20 mg/kg KU-32, as discussed in Example 1. Densitometric analyses were performed, and the ratio of the Hsp70 immunoreactivity was determined using actin as a loading control.

Data set [3] in a line: Pharmacokinetics: plasma and brain levels of KU-32 in mice by LC-MS. To be noted: female Balb/c mice, 2 or 20 mg/kg, IP or IV injection, FIG. 1. Format: in vivo. The protocol:
as §1

Data set [4] concerns streptozotocin (STZ)-induced diabetic neuropathy. As to the kind of experiment: STZ-induced diabetic neuropathy mouse model, second trial (treatment after 12 weeks of diabetes). Format: in vivo. As for the experimental part:
In a second trial, mice were rendered diabetic for 12 weeks. Diabetes was induced in test mice by 3 injections of streptozotocin (STZ) (n=28), and control mice (n=28) received a vehicle injection. Nerve conduction velocity (NCV) was measured in 4 mice from each group after 12 weeks, prior to initiating KU-32 treatment, after which time they developed substantial deficits in MNCV and SNCV (FIG. 7). Asterisks indicates p<0.05 compared to the time matched control. Diabetic mice also developed a substantial mechanical hypoalgesia after 5 weeks (FIG. 8) and a rapid onset of a thermal hypoalgesia (FIG. 9). Thus, any improvements by KU-32 were considered to be indicative of reversibility of a pre-existing deficits and not prevention.
After 12 weeks of diabetes, mice received weekly doses of 20 mg/kg KU-32 or vehicle by IP injection, and thermal and mechanical hypoalgesia were monitored. […] The asterisk indicates p<0.05 compared to the time matched control. The carat indicates p<0.05 compared to 14 weeks of STZ-Veh. Animal numbers were n=28 for Veh-Veh and STZ-Veh up to 12 weeks. Group numbers were n=12 at initiation of KU-32 and its vehicle (Veh).
The asterisk indicates p<0.05 compared to the time matched control, and the carat indicates p<0.05 compared to 14 weeks of STZ-Veh. Animal numbers were n=28 for Veh-Veh and STZ-Veh up to 12 weeks. Group numbers were n=12 at initiation of KU-32 and its vehicle (Veh).
Importantly, a similar recovery was evident after 12 weeks of diabetes despite the onset in improvement requiring 4 weeks of treatment. The delay may relate to the more severe decline in the function of the smaller sensory fibers since treatment was not started until 12 weeks of diabetes. The diabetic mice were very ill after 16 weeks and therefore were terminated at this time. […] Since the deficits in mechanical and thermal hypoalgesia reached a plateau between 12-14 weeks, the measures at 14 weeks of diabetes were used to assess for statistical improvements in sensory function after 3 or more weeks of KU-32 treatment. […] Thus, KU-32 improves nerve function in the absence of an overall improvement in metabolic parameters related to diabetes, i.e., hyperglycemia and weight loss. The data provides solid proof-of-principle that KU-32 can effectively reverse pre-existing deficits in two sensory measures that are direct, clinically relevant, parallels of human symptoms.

For data set [5], the system named is Experimental Autoimmune Encephalomyelitis; EAE. As to the kind of experiment: Daily dosing in murine EAE multiple sclerosis model. Type of data set: in vivo, mice. From the text:
In this example, female SJL/J mice (6-7 weeks old) were immunized with proteolipid protein (“PLP”) in CFA and pertussis toxin IV on day 0. The mice were boosted with PLP in IFA on day seven.

Data set [6] concerns neuregulin-induced demyelination. As to the kind of experiment: Cell culture model of myelinated nerve. Type of data set: cell-based. From the text:
Diabetic peripheral neuropathy (DPN) results from the degeneration of nerves that transmit sensations from the legs and arms. Schwann cells are specialized cells that closely associate with many nerves and also undergo profound changes in DPN. Schwann cells are necessary to form the myelin membrane that is present on many peripheral nerves and the loss of this myelin membrane is a common characteristic of human diabetic neuropathy. Identifying molecular mechanisms that may prevent demyelination or enhance remyelination are therefore good targets for therapeutic interventions in human DPN. Altered neurotrophism in DPN is described in detail in, for example, Dobrowsky et al., JPET 313:485-491, 2005. Heat shock protein 90 inhibitors offer a potential therapeutic approach toward treating DPN. A cell culture model of myelinated nerve was used to identify new molecular targets that can prevent demyelination.

Another data set deals with EAE model. The data set can be described thus: Single vs. weekly dosing in murine EAE MS model. Format: in vivo, mice. To be noted: single 20 mg/kg IP dose at onset of symptoms, first onset of disease (10-20 days). As for the experimental part: In this example, female SJL/J mice (6-7 weeks old) were immunized with proteolipid protein (“PLP”) in CFA and pertussis toxin IV on day 0. The mice were boosted with PLP in IFA on day seven. At the onset of symptoms, mice received either a single 20 mg/kg dose of KU-32 IP, weekly 2 mg/kg IP doses of KU-32, or no treatment. The mice were scored daily for severity of disease and body weight.

Where [7] appears, read: weekly 20 mg/kg IP after 8 weeks of diabetes, did not reach significance.
Setting [8] is: diabetic animals receiving KU-32 compared to the diabetic mice.

The values that follow come from patent publication US20100022635A1, “Heat shock protein 90 inhibitor dosing methods” (University of Kansas, priority 2008, published 2010).

For the molecule `CO[C@@H]1[C@@H](O)[C@@H](O)[C@H](Oc2ccc3cc(NC(C)=O)c(=O)oc3c2C)OC1(C)C` [KU-32, N-(7-((2R,3R,4S,5R)-3,4-dihydroxy-5-methoxy-6,6-dimethyltetrahydro-2H-pyran-2-yloxy)-8-methyl-2-oxo-2H-chromen-3-yl)acetamide], the “time to improvement in thermal sensitivity” value in data set [1] (treatment initiated after 8 weeks of diabetes) is “evident within two weeks”. Moreover, the thermal hypoalgesia entry in data set [1] (weekly 20 mg/kg IP after 8 weeks of diabetes) was “sufficient to improve thermal hypoalgesia”; in data set [4] (weekly 20 mg/kg IP after 12 weeks of diabetes, FIG. 9), “improved thermal hypoalgesia”. In addition, in data set [1] (weekly 20 mg/kg IP after 8 weeks of diabetes, decrease observed after 15 weeks of diabetes), the “sensory nerve conduction velocity (SNCV)” value is on record as “helped to improve the decrease in sensory nerve conduction velocity”. In addition, the mechanical hypoalgesia entry in data set [1] (setting [7]) was “seemed to have an effect on mechanical hypoalgesia”; in data set [4] (weekly 20 mg/kg IP after 12 weeks of diabetes, FIG. 8), “significantly improved the mechanical hypoalgesia after 3 weeks of treatment”. Besides, the “motor NCV (MNCV) deficit” value in data set [1] (setting [7]) is reported as “improved the pre-existing motor NCV (MNCV) deficit”. For the same molecule, the phase-solubility behavior result in data set [2] (0.05-0.2 M Captisol in water, at least 24 hours at 25° C., RP-HPLC) is recorded as “AP-type”. In addition, the “solubility in 0.05 M Captisol” value in data set [2] (0.05 M Captisol) is “adequate solubility”. Moreover, the “Hsp70 levels in mouse brain (ratio of Hsp70 to actin)” value in the data set with Hsp70 is “increased following single IP injection of KU-32 in mice over a 72-96 hour period and remained elevated”. Moreover, the “KU-32 levels in mouse plasma and brain over time” value in data set [3] is given as “fall below detectable limits by eight hours”. In addition, the body weight entry in data set [4] (setting [8]) is “no differences”; in the data set with EAE model (FIG. 6), “lost less body weight”. In data set [4] (setting [8]), the fasting blood glucose entry is given as “no differences”. Besides, the “onset in improvement of thermal sensitivity” value in data set [4] (treatment started after 12 weeks of diabetes) is on record as 4 weeks of treatment. The body weights result in data set [5] (SJL/J mice, 2, 5 or 10 mg/kg IP daily from day 12, FIG. 3) was “increase in the rate of onset and worsening of the disease”. Besides, the clinical score entry was “increase in the rate of onset and worsening of the disease” in data set [5] (SJL/J mice, 2, 5 or 10 mg/kg IP daily from day 12, FIG. 4); “better clinical score” in the data set with EAE model (FIG. 5). The neuregulin-induced demyelination entry in data set [6] was “prevent neuregulin-induced demyelination”.
